Experiments:
FGFR1 = FGFR1 (Homo sapiens, UniProt P11362); test: SelectScreen kinase activity profiling, FGFR1; type: biochemical; design: concentration or dose not given beside the values; settings: for Mean % Inhibition: mean of two independent trials
Text: (§1) To characterize the RTK inhibitory activity of the antiangiogenic SMs described herein, 36 compounds were chosen and screened using Invitrogen's SelectScreen® kinase activity profiling service (described on-line at tools.invitrogen.com/content.cfm?pageid=10413#selection). VEGFR1 and FGFR2 RTK inhibitory activities were studied. […] Overall, a small minority of the SMs tested had any substantial kinase inhibitory activity. This observation supports a mechanism of antiangiogenic action other than RTK inhibition for most of the SMs described herein.

KDR(VEGFR2) = KDR(VEGFR2) (Homo sapiens, UniProt P35968); test: SelectScreen kinase activity profiling, KDR(VEGFR2); type: biochemical; design: % Inhibition / Mean % Inhibition: concentration or dose not given beside the values; settings: KDR(VEGFR2); for Mean % Inhibition: mean of two independent trials
Text: as §1

[1] = first of two independent trials
[2] = second of two independent trials

KDR(VEGFR2), sequence (P35968 20-1356): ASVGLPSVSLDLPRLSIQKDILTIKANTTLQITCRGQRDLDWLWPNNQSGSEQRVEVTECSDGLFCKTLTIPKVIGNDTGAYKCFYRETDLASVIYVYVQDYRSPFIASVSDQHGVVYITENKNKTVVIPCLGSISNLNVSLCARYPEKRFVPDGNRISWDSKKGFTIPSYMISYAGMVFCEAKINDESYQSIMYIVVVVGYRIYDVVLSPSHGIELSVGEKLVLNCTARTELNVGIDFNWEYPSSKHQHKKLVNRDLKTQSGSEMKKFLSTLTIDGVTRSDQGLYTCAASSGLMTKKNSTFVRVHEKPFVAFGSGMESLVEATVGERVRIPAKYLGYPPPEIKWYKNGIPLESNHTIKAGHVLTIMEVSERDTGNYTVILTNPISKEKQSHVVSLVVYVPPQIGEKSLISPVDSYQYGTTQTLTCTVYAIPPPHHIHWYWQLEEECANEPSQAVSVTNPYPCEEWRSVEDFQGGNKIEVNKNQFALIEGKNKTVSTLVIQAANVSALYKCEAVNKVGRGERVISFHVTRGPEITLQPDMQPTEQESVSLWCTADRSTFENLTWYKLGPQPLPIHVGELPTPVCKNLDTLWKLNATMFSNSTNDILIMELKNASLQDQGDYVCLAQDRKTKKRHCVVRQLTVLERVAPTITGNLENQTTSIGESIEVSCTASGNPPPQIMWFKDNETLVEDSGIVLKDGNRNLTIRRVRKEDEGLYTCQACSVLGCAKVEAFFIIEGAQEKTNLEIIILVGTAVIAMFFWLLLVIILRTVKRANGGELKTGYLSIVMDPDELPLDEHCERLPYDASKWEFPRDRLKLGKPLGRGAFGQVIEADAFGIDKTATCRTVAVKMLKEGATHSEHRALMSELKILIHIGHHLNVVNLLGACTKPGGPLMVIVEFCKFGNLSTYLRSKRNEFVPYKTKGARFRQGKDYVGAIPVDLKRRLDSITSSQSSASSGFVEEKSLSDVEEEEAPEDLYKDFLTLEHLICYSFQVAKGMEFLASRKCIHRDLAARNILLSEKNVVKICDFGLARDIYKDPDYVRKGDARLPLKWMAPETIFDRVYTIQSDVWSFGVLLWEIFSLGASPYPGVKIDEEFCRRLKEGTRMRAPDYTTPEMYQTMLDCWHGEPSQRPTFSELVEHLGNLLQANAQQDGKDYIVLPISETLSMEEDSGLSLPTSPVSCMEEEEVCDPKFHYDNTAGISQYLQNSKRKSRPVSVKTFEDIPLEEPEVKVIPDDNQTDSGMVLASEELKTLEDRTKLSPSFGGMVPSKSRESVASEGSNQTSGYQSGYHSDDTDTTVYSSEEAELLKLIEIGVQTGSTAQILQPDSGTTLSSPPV
FGFR1, sequence (P11362 398-822 limits assumed): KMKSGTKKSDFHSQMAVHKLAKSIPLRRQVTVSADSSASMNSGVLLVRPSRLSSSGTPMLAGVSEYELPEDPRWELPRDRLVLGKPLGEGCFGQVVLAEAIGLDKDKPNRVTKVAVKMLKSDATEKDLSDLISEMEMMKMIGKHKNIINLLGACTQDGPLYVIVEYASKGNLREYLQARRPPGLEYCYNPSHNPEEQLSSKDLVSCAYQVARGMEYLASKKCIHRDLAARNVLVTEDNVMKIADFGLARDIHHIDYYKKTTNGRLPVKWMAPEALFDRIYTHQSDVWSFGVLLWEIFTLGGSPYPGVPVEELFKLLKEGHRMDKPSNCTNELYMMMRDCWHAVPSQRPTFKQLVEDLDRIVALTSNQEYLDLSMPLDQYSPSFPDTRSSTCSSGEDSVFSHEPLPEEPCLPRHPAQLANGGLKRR

Compound	% Inhibition (FGFR1; [1]) [%]	Mean % Inhibition (FGFR1) [%]	% Inhibition (FGFR1; [2]) [%]	% Inhibition (KDR(VEGFR2); [1]) [%]	Mean % Inhibition (KDR(VEGFR2)) [%]	% Inhibition (KDR(VEGFR2); [2]) [%]
CCC(=O)OCN1C(=O)C=CC1=O [compound 19630]	2	0	−2	90	90	91
COc1ccc(CC2C(=O)NC(C)C(=O)N(C)C3Cc4ccc(cc4)Oc4cc(ccc4O)CC(C(=O)NC(C)C(=O)NC(C)C(=O)N2C)N(C)C3=O)cc1 (stereo not drawn) [compound 259969]	3	3	3	0	5	9
COc1cc2cc(c1Cl)N(C)C(=O)CC(OC(=O)C(C)C)C1(C)OC1C(C)C1CC(O)(NC(=O)O1)C(OC)/C=C/C=C(\C)C2 (stereo not drawn) [compound 292222]	2	3	5	8	7	7
CC1CCN(CC[S-])CC1.O.O.[Cl][Pt+] [compound 292596]	4	4	4	9	14	18
O=C1C(=Cc2ccccc2)C(NC2CCCCC2)c2ccccc21 (stereo not drawn) [compound 150117]	2	5	7	28	26	24
